Measurements from ChEMBL document CHEMBL5137022, “Antitumor Activity of Rutaecarpine in Human Colorectal Cancer Cells by Suppression of Wnt/β-Catenin Signaling” (J Nat Prod, 2022).
Calls of active or inactive are those of the source. The rule behind the calls is not given here.

Legend:
LS174T [1] = assay: Downregulation of survivin expression in human LS174T cells at 2.5 to 20 uM incubated for 24 hrs by Western blot analysis; type: functional, cell-based; details: dose 2.5-20 µM
LS174T [2] = assay: Induction of cell cycle arrest in human LS174T cells assessed as accumulation of cells at G2/M phase at 5 uM measured after 24 hrs by RNase A/propidium iodide staining based flow cytometric analysis (reference value: 12.2 %); type: functional
LS174T [3] = assay: Induction of cell cycle arrest in human LS174T cells assessed as accumulation of cells at sub-G1 phase at 10 uM measured after 24 hrs by RNase A/propidium iodide staining based flow cytometric analysis (reference value: 1.3 %); type: functional
LS174T [4] = assay: Induction of cell cycle arrest in human LS174T cells assessed as downregulation of cyclin E expression measured after 24 hrs by Western blot analysis; type: functional, cell-based; details: dose 5-20 µM, DDE = dose-dependent effect
LS174T [5] = assay: Induction of cell cycle arrest in human LS174T cells assessed as upregulation of p21 expression measured after 24 hrs by Western blot analysis; type: functional, cell-based; details: dose 5-20 µM, DDE = dose-dependent effect
LS174T [6] = assay: Induction of cell cycle arrest in human LS174T cells assessed as accumulation of cells at S phase at 20 uM measured at 24 hrs by RNase A/propidium iodide staining based flow cytometric analysis (reference value: 11.4 %); type: functional
LS174T [7] = assay: Induction of cell cycle arrest in human LS174T cells assessed as accumulation of cells at sub-G1 phase at 20 uM measured at 36 hrs by RNase A/propidium iodide staining based flow cytometric analysis (reference value: 0.7 %); type: functional
LS174T [8] = assay: Induction of cell cycle arrest in human LS174T cells assessed as accumulation of cells at G2/M phase at 20 uM measured at 36 hrs by RNase A/propidium iodide staining based flow cytometric analysis (reference value: 12.9 %); type: functional
LS174T [9] = assay: Induction of cell cycle arrest in human LS174T cells assessed as accumulation of cells at sub-G1 phase at 20 uM measured at 48 hrs by RNase A/propidium iodide staining based flow cytometric analysis (reference value: 0.7 %); type: functional
LS174T [10] = assay: Downregulation of N-cadherin expression in human LS174T cells at up to 8 uM incubated for 24 hrs by Western blot analysis; type: functional, cell-based
LS174T [11] = assay: Antitumor activity against human LS174T cells xenografted in BALB/c nude mouse assessed as reduction in tumor volume at 30 mg/kg, ip administered 3 times per week for 21 days by electronic caliper method; type: functional; parameters: scale not given: the % may be the effect or the level left; details: time 21 day
LS174T [12] = assay: Antitumor activity against human LS174T cells xenografted in BALB/c nude mouse assessed as reduction in tumor weight at 10 mg/kg, ip administered 3 times per week for 21 days by electronic caliper method; type: functional; parameters: scale not given: the % may be the effect or the level left; details: time 21 day

## O=c1c2ccccc2nc2n1CCc1c-2[nH]c2ccccc12 [RUTAECARPINE]
LS174T [1]
  Activity: Active
LS174T [2]
  Activity: 11.8%
LS174T [3]
  Activity: 1.3%
LS174T [4]
  Activity: Dde
LS174T [5]
  Activity: Dde
LS174T [6]
  Activity: 2.2%
LS174T [7]
  Activity: 6.1%
LS174T [8]
  Activity: 4.5%
LS174T [9]
  Activity: 13.9%
LS174T [10]
  Activity: Active
LS174T [11]
  Activity: 54.6%
LS174T [12]
  Activity: 68.3%
